From ChEMBL document CHEMBL5053523, “Design, synthesis, and structure-activity relationship of PD-1/PD-L1 inhibitors with a benzo[d]isoxazole scaffold” (Bioorg Med Chem Lett, 2021)

Assays:
[1] = biological target: T1, Programmed cell death protein 1/Programmed cell death 1 ligand 1 (Homo sapiens, UniProt Q15116+Q9NZQ7); assay: Inhibition of PD-1/PDL1 protein-protein interaction (unknown origin) by HTRF assay; assay type: protein-complex assay
[2] = biological target: T1, Programmed cell death protein 1/Programmed cell death 1 ligand 1; assay: Inhibition of PD-1/PDL1 protein-protein interaction (unknown origin); assay type: protein-complex assay

T1 sequence (Q15116 whole entry): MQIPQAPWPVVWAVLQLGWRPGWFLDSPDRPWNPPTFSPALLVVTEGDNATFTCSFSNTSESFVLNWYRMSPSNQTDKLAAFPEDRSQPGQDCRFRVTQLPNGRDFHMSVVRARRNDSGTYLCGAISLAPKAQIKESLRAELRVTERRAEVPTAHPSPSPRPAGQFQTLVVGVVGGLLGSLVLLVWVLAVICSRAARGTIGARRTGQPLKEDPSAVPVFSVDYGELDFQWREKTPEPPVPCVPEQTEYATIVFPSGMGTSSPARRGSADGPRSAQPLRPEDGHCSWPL
T1 sequence (Q9NZQ7 whole entry): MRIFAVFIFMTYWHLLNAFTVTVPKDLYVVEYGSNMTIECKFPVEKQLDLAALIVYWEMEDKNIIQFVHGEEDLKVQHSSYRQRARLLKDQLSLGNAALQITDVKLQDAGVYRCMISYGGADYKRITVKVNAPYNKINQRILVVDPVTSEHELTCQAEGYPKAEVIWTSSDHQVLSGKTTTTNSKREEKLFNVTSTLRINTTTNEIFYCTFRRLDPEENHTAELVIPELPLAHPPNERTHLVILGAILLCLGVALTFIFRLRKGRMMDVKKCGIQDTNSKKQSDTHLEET

| SMILES | IC50 [1] | IC50 [2] |
| --- | --- | --- |
| O=C(O)C1CCCN1Cc1ccc2onc(Nc3cccc(-c4ccccc4)c3Cl)c2c1 (racemic) | 85.8 nM |  |
| O=C(O)C1CCN(Cc2ccc3onc(Nc4cccc(-c5ccccc5)c4Cl)c3c2)CC1 | 610 nM |  |
| O=C(O)C1CCN1Cc1ccc2onc(Nc3cccc(-c4ccccc4)c3Cl)c2c1 (racemic) | 480 nM |  |
| O=C(O)C1CCCN(Cc2ccc3onc(Nc4cccc(-c5ccccc5)c4Cl)c3c2)C1 (racemic) | 92.8 nM |  |
| OC1CCN(Cc2ccc3onc(Nc4cccc(-c5ccccc5)c4Cl)c3c2)C1 (racemic) | 464 nM |  |
| OCCNCc1ccc2onc(Nc3cccc(-c4ccccc4)c3Cl)c2c1 | 803 nM |  |
| O=C(O)C1CCCCN1Cc1ccc2onc(Nc3cccc(-c4ccccc4)c3Cl)c2c1 (racemic) | 71.2 nM |  |
| O=C(O)CNCc1ccc2onc(Nc3cccc(-c4ccccc4)c3Cl)c2c1 | 30.5 nM |  |
| OCCNCc1ccc2c(Nc3cccc(-c4ccc5c(c4)OCCO5)c3Cl)noc2c1 | 756 nM |  |
| O=C(O)CNCc1ccc2c(Nc3cccc(-c4ccccc4)c3Cl)noc2c1 | 718 nM |  |
| CC(=O)NCCNCc1ccc2onc(Nc3cccc(-c4ccccc4)c3Cl)c2c1 | 193 nM |  |
| O=C(O)C1CCN(Cc2ccc3onc(Nc4cccc(-c5ccccc5)c4Cl)c3c2)C1 (racemic) | 452 nM |  |
| O=C(O)[C@H](CO)NCc1ccc2c(Nc3cccc(-c4ccccc4)c3Cl)noc2c1 | 2390 nM |  |
| OC1CCN(Cc2ccc3c(Nc4cccc(-c5ccccc5)c4Cl)noc3c2)C1 (racemic) | 1490 nM |  |
| OCCNCc1ccc2onc(Nc3cccc(-c4ccc5c(c4)OCCO5)c3Cl)c2c1 | 3020 nM |  |
| CC(=O)NCCNCc1ccc2c(Nc3cccc(-c4ccc5c(c4)OCCO5)c3Cl)noc2c1 | 834 nM |  |

| SMILES | IC50 [1] | IC50 [2] |
| --- | --- | --- |
| COC(=O)[C@H](CO)NCc1ccc2onc(Nc3cccc(-c4ccccc4)c3Cl)c2c1 | 1620 nM |  |
| Cc1c(/C=C/c2c(Cl)cc(CNC(C)(CO)C(=O)O)cc2C(F)(F)F)cccc1-c1ccc2c(c1)OCCO2 (stereo unspecified) |  | 18 nM |
| OC1CCN(Cc2ccc3c(Nc4cccc(-c5ccc6c(c5)OCCO6)c4Cl)noc3c2)C1 (racemic) | 1680 nM |  |
| O=C(O)[C@H](CO)NCc1ccc2onc(Nc3cccc(-c4ccccc4)c3Cl)c2c1 | 26.8 nM |  |
| OCCNCc1ccc2c(Nc3cccc(-c4ccccc4)c3Cl)noc2c1 | 6490 nM |  |
| O=C(O)C1CN(Cc2ccc3onc(Nc4cccc(-c5ccccc5)c4Cl)c3c2)C1 | 364 nM |  |
| OC1CCN(Cc2ccc3onc(Nc4cccc(-c5ccc6c(c5)OCCO6)c4Cl)c3c2)C1 (racemic) | 1280 nM |  |
| Cc1c(NC(=O)c2cccc(CNCCO)n2)cccc1-c1ccccc1 |  | ≤ 10 nM |
| O=C(O)CNCc1ccc2onc(Nc3cccc(-c4ccc5c(c4)OCCO5)c3Cl)c2c1 | 91.6 nM |  |
| O=C(O)[C@H](CO)NCc1ccc2onc(Nc3cccc(-c4ccc5c(c4)OCCO5)c3Cl)c2c1 | 51.3 nM |  |
| CC(=O)NCCNCc1ccc2c(Nc3cccc(-c4ccccc4)c3Cl)noc2c1 | 2030 nM |  |
| O=C(O)CNCc1ccc2c(Nc3cccc(-c4ccc5c(c4)OCCO5)c3Cl)noc2c1 | 383 nM |  |
| CC(=O)NCCNCc1ccc2onc(Nc3cccc(-c4ccc5c(c4)OCCO5)c3Cl)c2c1 | 438 nM |  |
| O=C(O)[C@H](CO)NCc1ccc2c(Nc3cccc(-c4ccc5c(c4)OCCO5)c3Cl)noc2c1 | 1720 nM |  |
| N#Cc1cncc(COc2cc(OC3CCc4c(-c5ccccc5)cccc43)c(Cl)cc2CN[C@@H](CO)C(=O)O)c1 (stereo partly specified) |  | < 100 nM |
